Counter-ions that a name gives are not always drawn. Like-named read-outs stand apart in the source and are kept apart here.
Molecular target: T1, CDK9/cyclin K (Homo sapiens, UniProt P50750)
T1 construct: purchased Invitrogen (ThermoFisher) PV4335
Assay: TR-FRET Lanthascreen Eu Kinase Binding assay
Settings: for Curve Class: classifies curves by quality of fit, efficacy and number of asymptotes; for Efficacy: difference between highest and lowest activity across concentration range; for Efficacy / Max Resp: in %
Excerpt: The TR-FRET Lanthascreen Eu Kinase Binding assay for CDK9/cyclin K was purchased from ThermoFisher and performed as per manufacturer instructions.

[1] = logarithm of AC50, read-out: Log AC50 (converted)
[2] = concentration at which half maximal activity is observed, 7-point qHTS, read-out: AC50

T1 sequence (P50750 whole entry): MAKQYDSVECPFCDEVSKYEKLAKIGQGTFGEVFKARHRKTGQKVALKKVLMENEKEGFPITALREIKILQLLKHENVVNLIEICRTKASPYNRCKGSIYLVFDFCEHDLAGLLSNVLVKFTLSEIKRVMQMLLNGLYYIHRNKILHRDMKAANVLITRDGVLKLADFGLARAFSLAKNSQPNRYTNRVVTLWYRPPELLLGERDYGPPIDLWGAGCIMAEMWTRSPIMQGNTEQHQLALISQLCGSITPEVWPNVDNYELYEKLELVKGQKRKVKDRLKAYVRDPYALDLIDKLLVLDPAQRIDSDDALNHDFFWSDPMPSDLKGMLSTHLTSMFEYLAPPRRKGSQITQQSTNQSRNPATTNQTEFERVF
T1 sequence (O75909 whole entry partner): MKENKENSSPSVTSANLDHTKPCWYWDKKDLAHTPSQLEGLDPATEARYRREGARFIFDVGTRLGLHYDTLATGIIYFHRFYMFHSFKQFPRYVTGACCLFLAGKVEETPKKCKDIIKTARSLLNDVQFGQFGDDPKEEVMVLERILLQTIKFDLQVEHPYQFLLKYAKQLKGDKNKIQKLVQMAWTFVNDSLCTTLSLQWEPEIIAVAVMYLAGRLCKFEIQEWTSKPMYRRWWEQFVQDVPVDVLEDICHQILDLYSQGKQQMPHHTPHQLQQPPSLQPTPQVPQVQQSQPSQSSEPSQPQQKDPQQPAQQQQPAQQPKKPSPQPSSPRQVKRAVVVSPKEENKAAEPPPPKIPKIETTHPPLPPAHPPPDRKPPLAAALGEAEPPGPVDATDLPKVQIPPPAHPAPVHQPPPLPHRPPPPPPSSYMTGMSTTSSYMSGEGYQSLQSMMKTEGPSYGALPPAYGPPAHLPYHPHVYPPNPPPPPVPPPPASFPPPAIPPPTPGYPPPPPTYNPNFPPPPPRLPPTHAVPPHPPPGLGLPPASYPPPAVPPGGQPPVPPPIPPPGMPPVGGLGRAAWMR

AC50 [1] | AC50 [2] | Structure (SMILES) | Curve Class | Efficacy | Max Resp
631 nM | – | O=C1NC(=O)C(c2cnc3ccccn23)=C1c1cn2c3c(cc(F)cc13)CN(C(=O)N1CCCCC1)CC2 [LY2090314] | -1.1 | -79.5 | -83.9
– | – | CC(C)c1c2cc(-c3ccnc(N[C@H]4CC[C@H](NC5CCOCC5)CC4)n3)ccc2nn1C [LY2857785] | 5 | -28.1 | -89.7
– | 299 nM | C[C@@H](Oc1ccc2[nH]nc(/C=C/c3cnn(CCO)c3)c2c1)c1c(Cl)cncc1Cl [LY2874455] | -1.1 | -87.6 | -91.8
– | – | Cc1ccc(C(N)=O)cc1Nc1nccc(-c2cn(C(C)C)c3cnccc23)n1 [NCGC00263020-01] | -1.1 | -90.3 | -99.8
– | – | Cc1ccc([N+](=O)[O-])cc1[S+](=O)([O-])N(C)/N=C/c1cnc2ccc(Br)cn12 [NCGC00346500-05, PIK-75] | 5 | -24.5 | -95.2
– | 189 nM | N#Cc1ccnc(Nc2cc(C3CCN(C4COC4)CC3)cc(N3CCC(F)(F)C3)n2)c1 [NCGC00384250-01] | -1.2 | -76.1 | -87.1
– | – | O=[N+]([O-])c1cccc2[nH]c(CNc3nc(N4CCOCC4)nc4c3ncn4-c3ccsc3)nc12 [NCGC00386926-01] | -1.2 | -69.1 | -72.6
– | – | Cc1ccc([N+](=O)[O-])cc1[S+](=O)([O-])N(C)/N=C\c1cnc2ccc(Br)cn12 [NCGC00387028-01, PIK-75] | 5 | 0.0 | -93.4
– | – | Oc1cc(CNC(=S)/C=C/c2cc(O)c(O)c(Br)c2)cc(O)c1O [NT 157] | -1.4 | -60.3 | -8.3
– | – | C[S+](=O)([O-])N1CCC(NC(=O)c2[nH]ncc2NC(=O)c2c(Cl)cccc2Cl)CC1 [NVP-LCQ195] | -1.2 | -72.2 | -98.8
– | – | CC(=O)c1cnc2ccc(-c3cc(Cl)c(O)c(Cl)c3)nc2c1N[C@H]1CC[C@H](CN(C)C)CC1 [OTSSP167] | -1.1 | -82.5 | -98.5
– | – | CN(c1ncccc1CNc1nc(Nc2ccc3c(c2)CC(=O)N3)ncc1C(F)(F)F)[S+](C)(=O)[O-] [PF-562271] | -1.1 | -92.3 | -101.3
– | – | CC(C)CC(=O)Nc1[nH]nc2c1CN(C(=O)C1CCN(C)CC1)C2(C)C [PHA-793887] | -1.1 | -87.0 | -99.5
– | – | COc1ccccc1-c1c[nH]c2ncc(-c3cncc(C(=O)N(C)C)c3)cc12 [PPY A] | -1.1 | -90.1 | -95.0
– | – | C1=C/COCc2cc(ccc2OCCN2CCCC2)Nc2nccc(n2)-c2cccc(c2)COC/1 [Pacritinib] | -1.2 | -64.6 | -95.3
– | – | CC(=O)c1c(C)c2cnc(Nc3ccc(N4CCNCC4)cn3)nc2n(C2CCCC2)c1=O [Palbociclib (PD-0332991) HCl] | -1.1 | -92.3 | -91.0

AC50 [1] | AC50 [2] | Structure (SMILES) | Curve Class | Efficacy | Max Resp
631 nM | – | N[C@H]1CC[C@H](Nc2nc(Nc3ccc(C(=O)N4CCCCC4)cc3)c3ncn(-c4cccc(F)c4)c3n2)CC1 [Purfalcamine] | -1.2 | -78.7 | -96.3
– | – | CC(C)[C@H](CO)Nc1nc(Nc2cccc(Cl)c2)c2ncn(C(C)C)c2n1 [Purvalanol A] | -1.1 | -79.6 | -72.7
– | – | O=C(NCc1cccc(O)c1)Nc1nc(-c2ccncc2)cs1 [RKI-1447] | -1.2 | -64.8 | -59.5
– | – | Cc1cc(Nc2cc(NC(=O)c3c(Cl)cccc3Cl)ccn2)nc(N)n1 [RO495] | -1.1 | -93.8 | -99.1
– | – | Cn1cc(C2=C(c3cn(CCCSC(=N)N)c4ccccc34)C(=O)NC2=O)c2ccccc21 [Ro 31-8220 (mesylate)] | -1.3 | -42.0 | -60.6
– | – | CC[C@H](CO)Nc1nc(NCc2ccccc2)c2ncn(C(C)C)c2n1 [Roscovitine] | -1.1 | -100.3 | -97.7
– | – | COc1ccc2c(c1)/C(=C/c1cnc[nH]1)C(=O)N2 [SU9516] | -1.1 | -93.0 | -90.2
– | – | CCS(=O)(=O)c1cccc(-c2cc(C(=O)NC3CCN(C)CC3)c(C)c3[nH]c4ncc(C)cc4c23)c1 [TAK-901] | -1.1 | -101.2 | -96.3
– | – | O=C1OC(/C=C/c2ccccc2)=NC/1=C\c1cccnc1 [TC-DAPK 6] | -1.2 | -71.2 | -68.2
– | – | Oc1ccc(-c2ccc(-c3cc(Nc4cccc(CNC5CC5)c4)[nH]n3)cc2)c(O)c1 [TCS-2312] | -1.1 | -85.0 | -94.1
– | – | N#C/C(=C\c1ccc(O)c(O)c1)C(=O)NCCCNC(=O)/C(C#N)=C/c1ccc(O)c(O)c1 [Tyrphostin AG 537] | -1.1 | -98.0 | -83.8
– | – | CN[C@@H]1C[C@H]2O[C@@](C)([C@@H]1OC)n1c3ccccc3c3c4c(c5c6ccccc6n2c5c31)C(=O)N[C@H]4O [UCN-01] | -1.1 | -83.5 | -93.0
– | – | CC[C@@](C)(Nc1ccnc(-c2c[nH]c3ncccc23)n1)C(=O)NCC(F)(F)F [VX-509 (Decernotinib)] | -1.1 | -91.7 | -97.1
– | – | CN1CC[C@@H](c2c(O)cc(O)c3c(=O)cc(-c4ccc(C(F)(F)F)cc4Cl)oc23)[C@@H]1CO [Voruciclib] | -1.1 | -95.6 | -95.8
– | – | CC(C)c1cc(CNc2nc(Nc3cc(C4CC4)[nH]n3)cc(N3CCN(C)CC3)n2)on1 [XL-228] | -1.1 | -97.1 | -96.7
– | – | O=C1NCCSc2c1sc1ccc(O)cc21 [kb-NB142-70] | -1.1 | -82.7 | -91.1

Structure (SMILES) | AC50 [1] | AC50 [2] | Curve Class | Efficacy | Max Resp
CN1CCN(Cc2ccc(Nc3ncc(Cl)c(Nc4ccccc4S(=O)(=O)N(C)C)n3)cc2)CC1 [TP-0903] | – | 68.7 nM | -1.2 | -74.0 | -96.9
